Test results taken from PubChem BioAssay AID1919007 (Molecular Pharmacology Branch, DTP, NCI, 2023).

Tested on: A498 complex spheroids with HUVEC/MSC, growth
Assay: Anticancer human tumor A498 cell line growth inhibition [AhR];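 note: seven day exposure starting three days after spheroid seeding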;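 for viability, T/C: luminescence signal used as a surrogate for viable cells; luminescence viability scaled so 100% equals DMSO vehicle wells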
Details: for IC50: curve of first compound; for viability, T/C: stronger effect = lower value
Outline: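 Agents were dosed in half-log steps down from roughly clinical Cmax, or from 10 microM where Cmax was unknown, alone and with AhR antagonists. Read-out: percent test/control growth of tumor spheroids containing HUVEC and MSC stromal cells.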

[1] = second compound 0.1 µM, first compound 0.0316 µM
[2] = second compound 0.1 µM, first compound 0.1 µM
[3] = second compound 0.316 µM, first compound 0.0316 µM
[4] = second compound 0.316 µM, first compound 0.1 µM
[5] = second compound 1 µM, first compound 0.0316 µM
[6] = second compound 1 µM, first compound 0.1 µM
[7] = second compound 3.16 µM, first compound 0.0316 µM
[8] = second compound 3.16 µM, first compound 0.1 µM
[9] = second compound 10 µM, first compound 0.0316 µM
[10] = second compound 10 µM, first compound 0.1 µM
[11] = second compound 0.1 µM, first compound 0.316 µM
[12] = second compound 0.1 µM, first compound 1 µM
[13] = second compound 0.1 µM, first compound 3.16 µM
[14] = second compound 0.1 µM, first compound 10 µM
[15] = second compound 0.316 µM, first compound 0.316 µM
[16] = second compound 0.316 µM, first compound 1 µM
[17] = second compound 0.316 µM, first compound 3.16 µM
[18] = second compound 0.316 µM, first compound 10 µM
[19] = second compound 1 µM, first compound 0.316 µM
[20] = second compound 1 µM, first compound 1 µM
[21] = second compound 1 µM, first compound 3.16 µM
[22] = second compound 1 µM, first compound 10 µM
[23] = second compound 3.16 µM, first compound 0.316 µM
[24] = second compound 3.16 µM, first compound 1 µM
[25] = second compound 3.16 µM, first compound 3.16 µM
[26] = second compound 3.16 µM, first compound 10 µM
[27] = second compound 10 µM, first compound 0.316 µM
[28] = second compound 10 µM, first compound 1 µM
[29] = second compound 10 µM, first compound 3.16 µM
[30] = second compound 10 µM, first compound 10 µM

Compound | IC50 (second compound 0.1 µM) [nM] | IC50 (second compound 0.316 µM) [nM] | IC50 (second compound 1 µM) [nM] | IC50 (second compound 3.16 µM) [nM] | IC50 (second compound 10 µM) [nM] | viability, T/C [1] [%] | viability, T/C [2] [%] | viability, T/C [3] [%] | viability, T/C [4] [%] | viability, T/C [5] [%] | viability, T/C [6] [%] | viability, T/C [7] [%] | viability, T/C [8] [%] | viability, T/C [9] [%] | viability, T/C [10] [%] | viability, T/C [11] [%] | viability, T/C [12] [%] | viability, T/C [13] [%] | viability, T/C [14] [%] | viability, T/C [15] [%] | also measured
CC[C@@]1(O)C(=O)OCc2c1cc1n(c2=O)Cc2cc3c(CN(C)C)c(O)ccc3nc2-1 + Cc1ccccc1N=Nc1ccc(NC(=O)c2ccnn2C)c(C)c1 | > 100 | > 100 | > 100 | > 100 | > 100 | 75.7 | 74.7 | 74.3 | 74.2 | 71.5 | 66.5 | 69.8 | 64.2 | 78 | 63.4 |  |  |  |  |  | viability, T/C (second compound 0.1 µM, first compound 0.000316 µM): 88.9%; viability, T/C (second compound 0.1 µM, first compound 0.001 µM): 93.4%; viability, T/C (second compound 0.1 µM, first compound 0.00316 µM): 87.9%; viability, T/C (second compound 0.1 µM, first compound 0.01 µM): 80.7%; viability, T/C (second compound 0.316 µM, first compound 0.000316 µM): 90.7%; viability, T/C (second compound 0.316 µM, first compound 0.001 µM): 99.7%; viability, T/C (second compound 0.316 µM, first compound 0.00316 µM): 92.8%; viability, T/C (second compound 0.316 µM, first compound 0.01 µM): 81%; viability, T/C (second compound 1 µM, first compound 0.000316 µM): 87.5%; viability, T/C (second compound 1 µM, first compound 0.001 µM): 92.7%; viability, T/C (second compound 1 µM, first compound 0.00316 µM): 86.9%; viability, T/C (second compound 1 µM, first compound 0.01 µM): 68%; viability, T/C (second compound 3.16 µM, first compound 0.000316 µM): 87.3%; viability, T/C (second compound 3.16 µM, first compound 0.001 µM): 90.4%; viability, T/C (second compound 3.16 µM, first compound 0.00316 µM): 87.7%; viability, T/C (second compound 3.16 µM, first compound 0.01 µM): 74.7%; viability, T/C (second compound 10 µM, first compound 0.000316 µM): 84%; viability, T/C (second compound 10 µM, first compound 0.001 µM): 84.7%; viability, T/C (second compound 10 µM, first compound 0.00316 µM): 89.1%; viability, T/C (second compound 10 µM, first compound 0.01 µM): 76.5%
COc1cc(C2c3cc4c(cc3C(OC3OC5COC(C)OC5C(O)C3O)C3COC(=O)C23)OCO4)cc(OC)c1O (stereo not given) + Cc1ccccc1N=Nc1ccc(NC(=O)c2ccnn2C)c(C)c1 | > 10000 | > 10000 | > 10000 | 7600 | 8760 | 73.9 | 68 | 85 | 76.9 | 75.3 | 71.1 | 72.9 | 68.7 | 74.8 | 73.1 | 63.5 | 64.6 | 61.3 | 49.2 | 77.4 | viability, T/C [16]: 66.7%; viability, T/C [17]: 59.5%; viability, T/C [18]: 53.2%; viability, T/C [19]: 67.5%; viability, T/C [20]: 63.4%; viability, T/C [21]: 52.9%; viability, T/C [22]: 52.7%; viability, T/C [23]: 72.6%; viability, T/C [24]: 62.8%; viability, T/C [25]: 55.4%; viability, T/C [26]: 48.6%; viability, T/C [27]: 77.2%; viability, T/C [28]: 66.7%; viability, T/C [29]: 61.5%; viability, T/C [30]: 48.5%
Nc1ccn(C2OC(CO)C(O)C2(F)F)c(=O)n1 (stereo not given) + Cc1ccccc1N=Nc1ccc(NC(=O)c2ccnn2C)c(C)c1 | < 31.6 | < 31.6 | < 31.6 | < 31.6 | < 31.6 | 33.3 | 36 | 30.9 | 33.1 | 35.5 | 33.2 | 37 | 37.5 | 37.4 | 40.8 | 39.9 | 47.9 | 46.9 | 43.5 | 43.9 | viability, T/C [16]: 44.8%; viability, T/C [17]: 50.5%; viability, T/C [18]: 38%; viability, T/C [19]: 44%; viability, T/C [20]: 50.7%; viability, T/C [21]: 42.7%; viability, T/C [22]: 38.2%; viability, T/C [23]: 46.5%; viability, T/C [24]: 41.8%; viability, T/C [25]: 44.6%; viability, T/C [26]: 38.8%; viability, T/C [27]: 46.6%; viability, T/C [28]: 45.7%; viability, T/C [29]: 44.7%; viability, T/C [30]: 40.9%
